One test relates to CXCL10 (IP10). Description: ELISA of CXCL10 (IP10) protein in monkey serum and plasma. The following applies: monkey #A60055. The format is in vivo, cynomolgus monkey (Macaca fascicularis). The text has this: FIG. 6. ELISA confirmation of CXCL10 (IP10) protein level in monkey serum samples.
(§1) These peripheral biomarkers might allow safe use of cox-2 inhibitory compounds in clinics and selection of cox-2 inhibitory follow-up compounds without cardiovascular toxicity.

For a further test, the system named is INFγ. The experiment in a line: ELISA of INFγ protein in monkey serum and plasma. The format is in vivo, cynomolgus monkey (Macaca fascicularis). The following applies: monkey #A60055.
From the text: FIG. 7. ELISA confirmation of INFγ protein level in monkey serum and plasma samples.
as §1

Consider `CS(=O)(=O)c1ccc(C2=C(c3ccccc3)C(=O)OC2)cc1` [Vioxx®, rofecoxib], for which the “CXCL10 chemokine protein expression by ELISA” value in the test with CXCL10 (IP10) was “Increased expression”. For the same compound, in the test on INFγ, the “INFγ protein expression by ELISA” value is “Increased expression”.

The values are drawn from patent US9738932B2, “Biomarkers for cardiovascular side-effects induced by cox-2 inhibitory compounds” (FIRALIS SAS, priority 2005, dated 2017).
